Test results reported in US20070166710A1, “Methods for inhibiting adipogenesis and for treating type 2 diabetes” (priority 2003, published 2007).
Residue numbers refer to the chain shown, from its start.

Columns and labels:
[1] = target: T1, GST-Foxa-2 (recombinant, from E. coli BL21, pGEX-4T2) (UniProt P32182)
T1 sequence: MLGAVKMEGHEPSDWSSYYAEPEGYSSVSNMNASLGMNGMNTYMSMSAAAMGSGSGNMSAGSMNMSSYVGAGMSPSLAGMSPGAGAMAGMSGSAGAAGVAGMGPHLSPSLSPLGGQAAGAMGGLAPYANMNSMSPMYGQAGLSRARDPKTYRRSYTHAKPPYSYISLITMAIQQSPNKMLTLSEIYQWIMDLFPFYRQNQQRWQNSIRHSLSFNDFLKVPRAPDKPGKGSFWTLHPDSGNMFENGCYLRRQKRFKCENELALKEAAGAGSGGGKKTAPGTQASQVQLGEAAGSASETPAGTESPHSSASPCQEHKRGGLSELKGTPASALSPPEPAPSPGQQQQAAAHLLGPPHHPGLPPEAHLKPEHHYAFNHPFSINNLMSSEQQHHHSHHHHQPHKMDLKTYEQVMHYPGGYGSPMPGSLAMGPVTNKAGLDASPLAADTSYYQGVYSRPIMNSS

[2] = target: T2, GST-Foxa-2T156A (recombinant, from E. coli BL21, pGEX-4T2) (UniProt P32182)
T2 sequence: T1 sequence with T156A

Foxa-2 (transfected) = target: T3, Foxa-2 (transfected) (UniProt P32182); experiment: cell_activity
T3 sequence: T1 sequence

Foxa-2 expression [3] = experiment: Foxa-2 expression in primary adipocytes from ob/ob mice, semiquantitative RT-PCR; format: cell-based; details: 60 hours
Procedure: (§1) Total RNA was extracted from cells and EBs using Trizol following manufacturer's instructions (Life Technologies, Inc.). […] The cDNAs provided templates for polymerase chain reactions (PCRs) using specific primers at annealing temperatures ranging between 60 and 65° C. in the presence of dNTPs, [α^-32P]dCTP, and Taq DNA polymerase. […] Primary adipocytes were isolated as described by Rodbell (1964) J. Biol. Chem. 239:375-380. […] (1995) J. Cell. Biochem. 58:435-463. The reaction was stopped by spinning through dinonyl […] oil and the radioactivity quantified by scintillation counting. […] (1995) Am. J. Physiol. 268:[…]-[…]. Fatty acid de novo synthesis was analyzed by saponification of total lipids as described by […] et al. (1978) J. […] Incorporation into lipid glycerol was calculated by subtracting fatty acid radioactive label from total lipid radioactive label. Primary adipocytes were isolated from ob/ob mice and cultured in MEM medium (control) or in the presence of insulin (100 μM; 24 hours and 60 hours, respectively) or rosiglitazone (50 μM), WY14,643 (100 μM), dexamethason (1 μM), leptin (100 ng/ml), TNF-α, (5 ng/ml), adiponectin (500 ng/ml) and glucagons (100 nM) for 60 hours. Gene expression was measured by semiquantitative RT-PCR. Steady state mRNA levels of Hprt were used as a control and indicate that each lane contains similar amounts of rnRNA. Reactions were also assayed in the absence of reverse transcriptase, showing that mRNA was not contaminated with genomic DNA.

Foxa-2 [4] = experiment: Nuclear Foxa-2 in perfused livers, immunoblotting; format: in vivo, mice; details: liver perfusion experiments
Foxa-2 expression [5] = experiment: Foxa-2 expression in primary adipocytes from lean wildtype C57B6 mice, semiquantitative RT-PCR; format: cell-based; details: 60 hours; leptin 100 ng/ml, TNF-α 5 ng/ml, adiponectin 500 ng/ml, glucagon 100 nM, glucose 20 mmol/L
Procedure: as §1, with “lean wildtype C57B6” for “ob/ob”, “nM;” for “μM;”, “dexametason” for “dexamethason”, “TNF-α” for “TNF-α,”, “mRNA.” for “rnRNA.”

Pepck, G6pc and Igfbp-1 = experiment: mRNA levels of Foxa-2 target genes in primary hepatocytes (RT-PCR); format: cell-based; details: inhibitor together with insulin
Procedure: FIGS. 10a-d depict the effect of insulin on Foxa-2 activity. FIG. 10a is a bar graph depicting relative Foxa-2 activity in HepG2 cells transfected with an expression vector for Foxa-2 and […]-Luc (gray bars) or p6xCdx-TkLuc (black bars). Cells were treated with insulin alone or in the presence of Ly294002 or PD98059. FIG. 10b is a bar graph depicting relative Foxa-2 activity in HepG2 cells transfected with p6xCdx-TkLuc and treated with insulin alone or in the presence of Ly294002 or PD98059. […] FIG. 10d is a bar graph depicting relative Foxa-2 activity in HepG2 cells transfected with an expression vector for Foxa-1, Foxa-2, Akt or Akt[…] alone or in combination, using p6xCdx-TkLuc as reporter gene. In all experiments luciferase activity was normalized to β-Gal activity. […] Levels of mRNA were analyzed to determine whether inhibition of Foxa-2 target gene expression by insulin is controlled at a transcriptional or posttranscriptional level. The mRNA levels of Pepck, G6pc and Igfbp-1 in primary hepatocytes that were cultured either in the presence or absence of insulin, PI3-kinase or MAPKK1 inhibitors were measured.

Foxa-2 activity = experiment: Transactivation assay, HepG2 cells transfected with Foxa-2 and pPepck-Luc or p6xCdx-TkLuc; format: cell-based, rat; details: coincubation, inhibitor 10 μM, insulin 100 nM
Procedure: Transfections and Transactivation assay. HepG2 cells were grown to 60-70% confluence in a 24-well dish and transfected with 50 ng of each reporter gene (p6xCdx-TkLuc or pPEPCK-Luc), pCMV-β-Gal as internal reference and the expression vectors for wildtype or mutant Foxa-1 and Foxa-2 and human Akt1/Akt2 using the transfection reagent Fugene6 (Roche). Cells were grown for 48 hours and luciferase activity was measured using the Luciferase Detection System (Promega). Luciferase was normalized for transfection efficiency by β-galactosidase activity.
To analyze whether Foxa-2 activity is regulated by insulin, HepG2 cells were transfected with a Foxa-2 expression vector and either plasmid pPepck-Luc or p6xCdx-TkLuc that contain a 621 bp promoter framnent of the human PEPCK gene or six Foxa-2 binding sites of the Cdx-2 gene upstream of a minimal promoter and the luciferase gene, respectively.

Foxa-2 [6] = experiment: Immunofluorescence of subcellular distribution of endogenous Foxa-2 in HepG2 cells; format: cell-based; details: inhibitor in the presence of insulin (50 nM)
Procedure: Immunofluorescence microscopy. Cells were fixed for 30 minutes at room temperature with 2% paraformaldehyde. For immunofluorescent detection of Foxa-1 or Foxa-2, fixed cells were incubated with respective polyclonal antibodies (1:100) (Ruiz i Altaba et al. (1993) Mech. Dev. 44: 91-108) overnight at 4° C. After washing, the cells were treated with anti rabbit IgG secondary antibody linked to Alexa Fluor 488 (Molecular Probes). Immunofluorescent staining was visualized using laser-scanning micrsocopy. To determine whether Akt-induced phosporylation of Foxa-2 has an effect on the subcellular distribution of this transcription factor, the following experiment was performed. HepG2 cells were grown to 60% confluency and endogenous Foxa-1 and Foxa-2 proteins were visualized by immunofluorescence after staining with anti Foxa-1 and Foxa-2 antibodies. Cells were either examined in the absence or presence of insulin (50 nM) and/or Ly294002 or PD98059, and after transfection with either Akt1 or Akt2 expression vectors (FIG. 5B). […] Treatment of cells with MAPKK1 inhibitor PD98059 had no effect on insulin stimulated nuclear exclusion of Foxa-2. The subcellular distribution of Foxa-2 in cells that were stimulated with insulin and expressed a dominant negative form of Akt (Akt[…]) were resistant to nuclear exclusion. […]

Molecule: constitutively active Akt, HA-tagged (pCMV-HA-myrAkt)
- phosphorylation in an in vitro kinase assay ([gamma-32P]-ATP, autoradiography) [1]: wildtype Foxa-2 was phosphorylated by either Akt or myrAkt
- phosphorylation in an in vitro kinase assay ([gamma-32P]-ATP, autoradiography) [2]: no phosphorylation could be observed using Foxa-2T156A protein as substrate

Molecule: Pref-1 promoter (1.3 kb) luciferase reporter
- activity (fold activation) (Foxa-2 (transfected); 3T3-L1 luciferase reporter): 6

Molecule: glucagon: hormone tested on Foxa-2 expression and nuclear localization
- Foxa-2 expression (Foxa-2 expression [3]): unable to raise
- Foxa-2 nuclear localization (Foxa-2 [4]): does not affect
- De novo expression of Foxa-2 (Foxa-2 expression [5]): could not be induced

Molecule: IL6: factor with effects on adipocyte differentiation and metabolism
- Foxa-2 expression (Foxa-2 expression [3]): unable to raise
- De novo expression of Foxa-2 (Foxa-2 expression [5]): could not be induced

Molecule: Pref-1 promoter reporter, upstream Foxa element deleted
- activity (% reduction of activity) (Foxa-2 (transfected); 3T3-L1 luciferase reporter): 50

Molecule: COc1cccc(-c2cc(=O)c3ccccc3o2)c1N [PD98059, reference compound]
- mRNA levels of Pepck, G6pc and Igfbp-1 (Pepck, G6pc and Igfbp-1): significantly reduced
- insulin mediated decrease of Foxa-2 activity (Foxa-2 activity): did not influence
- subcellular localization of endogenous Foxa-2 / insulin stimulated nuclear exclusion (Foxa-2 [6]): no effect

Molecule: leptin: factor with effects on adipocyte differentiation and metabolism
- Foxa-2 expression (Foxa-2 expression [3]): unable to raise
- De novo expression of Foxa-2 (Foxa-2 expression [5]): could not be induced

Molecule: TNF-α
- Foxa-2 expression (Foxa-2 expression [3]): unable to raise
- De novo expression of Foxa-2 (Foxa-2 expression [5]): could not be induced

Molecule: HA-Akt (human Akt1 fused to an N-terminal HA-tag, expressed from pCMV-HA-Akt)
- phosphorylation in an in vitro kinase assay ([gamma-32P]-ATP, autoradiography) [1]: wildtype Foxa-2 was phosphorylated by either Akt or myrAkt
- phosphorylation in an in vitro kinase assay ([gamma-32P]-ATP, autoradiography) [2]: no phosphorylation could be observed using Foxa-2T156A protein as substrate

Molecule: 6xCdx-TkLuc (six Foxa-2 sites of the Cdx-2 gene)
- activity (fold activation) (Foxa-2 (transfected); HepG2, decreased by insulin or Akt): 5

Molecule: PEPCK promoter (621 bp) luciferase reporter
- activity (fold activation) (Foxa-2 (transfected); HepG2, about 6-fold in FIG. 11c): 5

B1: adiponectin: factor with effects on adipocyte differentiation and metabolism (protein, UniProt Q15848 19-244, looked up)
Adiponectin: ETTTQGPGVLLPLPKGACTGWMAGIPGHPGHNGAPGRDGRDGTPGEKGEKGDPGLIGPKGDIGETGVPGAEGPRGFPGIQGRKGEPGEGAYVYRSAFSVGLETYVTIPNMPIRFTKIFYNQQNHYDGSTGKFHCNIPGLYYFAYHITVYMKDVKVSLFKKDKAMLFTYDQYQENNVDQASGSVLLHLEVGDQVWLQVYGEGERNGLYADNDNDSTFTGFLLYHDTN
- Foxa-2 expression (Foxa-2 expression [3]): unable to raise
- De novo expression of Foxa-2 (Foxa-2 expression [5]): could not be induced
